Patent US5478848A (priority 1994, dated 1995)
Where two headings read alike, the source gives them in different places.

What was measured:
[1] = cited from earlier work
[2] = Inhibition of arthritis in the adjuvant-induced arthritis model in the Lewis rat; type: in vivo; details: for ED50: Rattus norvegicus, ip, 384 h; for Potency compared with indomethacin: i.p., adjuvant arthritis model
Description: One similarity is the sensitivity to certain therapeutic treatments known to be active in humans. Also, therapeutic doses in humans are similar to therapeutic doses in the adjuvant arthritis model. Examples include NSAIDs, steroids, methotrexate, immunosuppressive drugs, such as cyclosporin, and cytotoxic drugs, such as cyclophosphamide and allopurinol. Jeurissen et. al., Arthritis and Rheumatism 34, 961-972 (1991); Yocum et. al., Annals of Internal Medicine 109, 863-869 (1988); Rau, et. al., Arthritis and Rheumatism 34, 1236-1244 (1991); Otterness and Bliven, supra; Ward, Am. J. Med. Medicine. pp. 3-9 (Jul. 13, 1984).
Lewis rats were given a 0.1 ml injection of adjuvant (1 mg/animal) into the base of the tail on day 0. Swelling of the feet and ankles was first noted on days 10-12. Maximal swelling was observed on days 16-20. The cell infiltrate of the chronic inflammatory responses is predominantly mononuclear (indicating the presence of cell-mediated immunity). Animals were observed daily, and ankle diameter was measured in millimeters on days 12 and 16 using a hand-held dial micrometer. The degree of swelling was assessed by calculating the mean difference between day 16 and day 0 ankle diameter. The results are expressed as the percent inhibition of the increase in ankle diameter on day 16. At this point the animals were sacrificed and tissues were taken for histologic evaluation.
Animals were administered test drugs, suspended in 5% polyethylene glycol and 0.5% Tween-80 in phosphate buffered saline (p.o. or i.p.) once each day from day 1 to day 16.

[3] = Inhibition of arthritis in the passive transfer model; type: in vivo, Lewis rat
Description: Another arthritis model often used is the passive transfer model. In the passive transfer model of adjuvant arthritis, spleen cells are harvested from animals 12-14 days after the animals have been injected with adjuvant, cultured 24 hours in vitro with the T-cell mitogen, concanavaLin A, and injected into naive rats. Within 14-20 days, arthritis develops in the paws. […] Otterness and Bliven, supra.
Nimodipine was also tested for its ability to inhibit arthritis in the passive-transfer model. Otterness and Bliven, supra.
Spleens were harvested from naive rats or from rats 9-12 days after sensitization with complete Freund's adjuvant. Single cell suspensions from spleen were prepared and cells were cultured for 24 hours with the T cell mitogen, concanavalin A. Spleen cells were harvested and injected, i.v., into naive animals. Ankle diameters were determined 14-18 days after injection of spleen cells from naive or sensitized animals into naive animals. Animals were administered nimodipine at 10 mg/kg/day, i.p., suspended in 5% polyethylene glycol and 0.5% Tween-80 in phosphate-buffered saline.

[4] = cited from earlier work; remark: listed apart in the source
[5] = test system: L-type Ca2+ channels; details: fibroblasts, macrophage/monocyte-like cells, Kuppfer cells; cited from earlier work

CC1=C(CC(=O)O)c2cc(F)ccc2/C1=C\c1ccc([S+](C)[O-])cc1 (stereo not shown) [sulindac]
Potency relative to indomethacin ([1]; human, in vivo): only half as potent as indomethacin
Toxic side effects ([1]; human, in vivo): has toxic side effects of its own

COC(=O)C1=C(C)NC(C)=C(C(=O)OCC(C)C)C1c1ccccc1[N+](=O)[O-] (stereo not shown) [nisoldipine]
ED50 ([2]; i.p. dosage, once each day from day 1 to day 16, increase in ankle diameter on day 16, read-out: ED50): < 1 mg/kg
Potency compared with indomethacin [2]: comparable in potency to indomethacin

COCCOC(=O)C1=C(C)NC(C)=C(C(=O)OC(C)C)C1c1cccc([N+](=O)[O-])c1 (stereo not shown) [nimodipine]
ED50 [2]: 4 mg/kg
Potency compared with indomethacin [2]: comparable in potency to indomethacin
Inhibition of arthritis in the passive transfer model ([3]; 10 mg antagonist/kg body weight/day): completely inhibited arthritis
Increase in paw diameter ([3]; sensitized T cells, 10 mg/kg/day, i.p., 14-18 days after injection of spleen cells): 0.2 ± 0.05 mm
Gastrointestinal irritation ([4]; acute, sub-acute and chronic exposure, even at supra-therapeutic concentrations, NDA applications): have not revealed any gastrointestinal irritation
Gastrointestinal toxicity ([4]; expected therapeutic dose in rheumatoid arthritis, prolonged periods of treatment): no gastrointestinal toxicity has been observed

COc1ccc2c(c1)c(CC(=O)O)c(C)n2C(=O)c1ccc(Cl)cc1 [indomethacin]
ED50 [2]: 3 ± 1 mg/kg
Patients experiencing untoward side effects ([1]; human, in vivo): 35-50%
Patients forced to discontinue use ([1]; human, in vivo): about 20%
Ulceration of the upper gastrointestinal tract / gastrointestinal bleeding ([1]; therapeutic doses used in rheumatoid arthritis): ulceration of the upper gastrointestinal tract leading to gastrointestinal bleeding is common

COC(=O)C1=C(C)NC(C)=C(C(=O)OC)C1c1ccccc1[N+](=O)[O-] [nifedipine]
ED50 [2]: 11 mg/kg

COc1ccc(CCN(C)CCCC(C#N)(c2ccc(OC)c(OC)c2)C(C)C)cc1OC (stereo not shown) [verapamil]
ED50 [2]: 10 mg/kg

COC(=O)C1=C(C)NC(C)=C([N+](=O)[O-])C1c1ccccc1C(F)(F)F (stereo not shown) [Bay K 8644]
Entry of Ca2+ into non-excitable cells [5]: stimulated

CN(Cc1cnc2nc(N)nc(N)c2n1)c1ccc(C(=O)N[C@@H](CCC(=O)O)C(=O)O)cc1 [methotrexate]
Progressive dose-related hepatic changes ([1]; extended periods of treatment, correlates with ethanol ingestion): progressive dose-related hepatic changes
Hepatic effects in patients treated for rheumatoid arthritis ([1]; human, in vivo): Hepatic fibrosis and cirrhosis have been reported
